Experimental data published in US11020358B2, “Method for the anti-senescence of and/or rejuvenating stem cells” (GWO XI STEM CELL APPLIED TECHNOLOGY CO., LTD., priority 2014, dated 2021).

Key:
SIRT1 gene = test: Quantitative RT-PCR of SIRT1 gene in ADSCs; type: cell-based, human
Procedure: Four portions of equal volume of the above culture medium containing the sub-cultured ADSCs were separately handled by adding thereinto H2O2 (purchased from Sigma-Aldrich) at a final concentration of 100 μM and reacting for 2 hours to induce senescence of the ADSCs, replacing the culture medium with a fresh culture medium, adding thereinto TC (trans-cinnamaldehyde, purchased from Sigma-Aldrich) at a final concentration of 0, 2, 4 or 6 μM and reacting for 6 hours, so as to obtain “H2O2 group (i.e., treated with H2O2 for 2 hours, but not treated with TC),” “H2O2+TC2 group (i.e., treated with H2O2 for 2 hours and then treated with 2 μM of TC for 6 hours),” “H2O2+TC4 group (i.e., treated with H2O2 for 2 hours and then treated with 4 μM of TC for 6 hours),” and “H2O2+TC6 group (i.e., treated with H2O2 for 2 hours and then treated with 6 μM of TC for 6 hours)” ADSCs.
Five portions of equal volume of the above culture medium containing the sub-cultured ADSCs were separately handled by adding thereinto with H2O2 at a final concentration of 100 μM and reacting for 2 hours to induce senescence of the ADSCs. Then, the culture medium in each of the five portions was replaced with a fresh culture medium. The first portion was handed by adding thereinto TC at a final concentration of 6 μM and reacting for 6 hours to obtain “TC6H group” ADSCs. The second to fifth portions were handled by adding thereinto TC at a final concentration of 6 μM, reacting for 6 hours, and then transferring and incubating the ADSCs in DMEM for 12, 24, 48 and 72 hours respectively to obtain “TC12H group,” “TC24H group,” “TC48H group” and “TC72H group” ADSCs. […]
Each of the cDNA of ADSCs of different groups from Experiment (3-1) was handled as follows. […] The mixture was then placed in a real-time quantitative PCR machine (ABI prism 7700 sequence detection system) to perform a reaction for quantifying the gene expression levels. […]

ADSCs = test: Osteogenic differentiation assay; type: cell-based, human; settings: H2O2 group ADSCs (100 μM 2 h), compared to untreated group
Procedure: Four portions of equal volume of the above culture medium containing the sub-cultured ADSCs were separately handled by adding thereinto H2O2 (purchased from Sigma-Aldrich) at a final concentration of 100 μM and reacting for 2 hours to induce senescence of the ADSCs, replacing the culture medium with a fresh culture medium, adding thereinto TC (trans-cinnamaldehyde, purchased from Sigma-Aldrich) at a final concentration of 0, 2, 4 or 6 μM and reacting for 6 hours, so as to obtain “H2O2 group (i.e., treated with H2O2 for 2 hours, but not treated with TC),” “H2O2+TC2 group (i.e., treated with H2O2 for 2 hours and then treated with 2 μM of TC for 6 hours),” “H2O2+TC4 group (i.e., treated with H2O2 for 2 hours and then treated with 4 μM of TC for 6 hours),” and “H2O2+TC6 group (i.e., treated with H2O2 for 2 hours and then treated with 6 μM of TC for 6 hours)” ADSCs. […] After being photographed, the absorbance at a wavelength of 450 nm (i.e., OD450) of each sample was measured to figure out the effect of H2O2 and/or TC on the osteogenic differentiation capacity of ADSCs.

Row | SMILES | expression levels of SIRT1 gene (quantitative RT-PCR) (SIRT1 gene; ADSCs treated only with 2, 4 and 6 μM TC 6 h (FIG. 5A)) | time for which the effect of TC on increasing SIRT1 gene expression is maintained (SIRT1 gene; H2O2-senescent ADSCs, 6 μM TC 6 h, then incubated in DMEM 12-72 h, no significant difference to TC6H group) | expression levels of SIRT1 gene (quantitative RT-PCR) (SIRT1 gene; H2O2-senescent ADSCs, 2, 4 and 6 μM TC 6 h, compared to H2O2 group (FIG. 5B)) | cell number after osteogenic differentiation (OD450) (ADSCs)
1 | O=C/C=C/c1ccccc1 [TC, trans-cinnamaldehyde] | significantly increased along with the increment in the concentration of TC | at least 72 hours | significantly increased along with the increment in the concentration of TC | 
2 | OO [H2O2, reference compound] |  |  |  | significantly reduced
